Reference: US20180125842A1, “Ergoloid for Cancer” (priority 2016, published 2018)

Tested on: splenic lymphoma
Experiment: Clinical use in splenic lymphoma
Assay type: in vivo, human
Conditions: before addition of Ergoloid

## Rituxan: an immunotherapy
  disease course on Rituxan alone: gradually allowing progression
